Test results as given in patent publication US20090068290A1, “BIFEPRUNOX DOSES FOR TREATING SCHIZOPHRENIA” (priority 2006, published 2009).

Key:
[1] = test system: adult subjects with schizophrenia; test: PANSS total score, Clinical Study Three (6-week, olanzapine-referenced); type: in vivo, human
Experimental: (§1) There were four treatment arms in this study, approximately 144 subjects per arm. […] After completing the Single-Blind Placebo Lead-in Period of at least three days, bifeprunox-treated subjects were titrated from 0.25 mg up to 20 mg/day or 30 mg/day according to a standardized titration scheme over a seven- or eight-day period, respectively. When the assigned dose was reached, subjects were maintained at that dose for the remainder of the six week treatment period. […] Subjects were hospitalized (if not already inpatients) after eligibility for study entry was verified, starting from the Screening Visit until at least 10 days after Baseline. Subjects could be hospitalized longer than 10 days if considered medically necessary by the Investigator. Rating scale assessments for efficacy and abnormal movement disorders were done weekly except for Week 5. Safety assessments were performed at Screening, during treatment and at the end of the study. Subject satisfaction with study medication was assessed at Week 6. Samples of whole blood were obtained at Weeks 2, 4, and 6 for determination of bifeprunox in plasma.
Test Product, Dose and Mode of Administration: Bifeprunox tablets, total daily dose 20 mg or 30 mg (one 20 mg tablet and one 10 mg tablet) administered orally using a once daily dosing regimen.

[2] = test system: adult subjects with schizophrenia; test: Adverse events (TEAE, SAE, special interest, discontinuation, EPS-related TEAE), Clinical Study Three; conditions: for safety and tolerability: bifeprunox 20 mg and 30 mg, 6 weeks
Experimental: as §1
EPS were assessed using treatment-emergent adverse events such as akathisia, dyskinesia, parkinsoniam, etc. and/or formal rating scales such as SAS, BAS, and/or AIMS.

[3] = Clinical laboratory assessments (prolactin), Clinical Study Three; conditions: bifeprunox 20, 30 mg; 6 weeks
From the text: To assess the safety and tolerability of bifeprunox using physical examination, weight, waist circumference, vital signs (pulse rate and systolic/diastolic blood pressure [BP], and oral temperature), 12-lead electrocardiogram (ECG), clinical laboratory assessments (hematology, biochemistry including fasting insulin level, fasting glucose, fasting lipid profile, urinalysis, special laboratory assessments for prolactin, IGF-1, IGFBP-3, and thyroid function), need for anticholinergic treatment during double-blind treatment period, concomitant medication use, adverse event (AE) monitoring, and assessments of abnormal movement including the Simpson-Angus Scale (SAS), Barnes Akathisia Scale (BAS), and Abnormal Involuntary Movement Scale (AIMS).

[4] = Bifeprunox 30 mg, Week 4, LOCF, ITT
[5] = Bifeprunox 30 mg, Week 6/Endpoint, LOCF, ITT

O=c1[nH]c2cccc(N3CCN(Cc4cccc(-c5ccccc5)c4)CC3)c2o1 [Bifeprunox, 7-[4-([1,1′-biphenyl]-3-ylmethyl)-1-piperazinyl]-2(3H)-benzoxazolone]
Change from Baseline in PANSS Total Score, Median ([1]; Bifeprunox 30 mg, Week 3, LOCF, ITT): −11
Change from Baseline in PANSS Total Score, Mean (SD) [1, 4]: −12.0 (18.6)
Change from Baseline in PANSS Total Score, Median [1, 4]: −13
Change from Baseline in PANSS Total Score, Mean (SD) [1, 5]: −13.1 (20.2)
Change from Baseline in PANSS Total Score, Median [1, 5]: −13
PANSS Total Score, Trt Effect (difference between bifeprunox and placebo) ([1]; Bifeprunox 30 mg, Week 6/Endpoint, LOCF, ITT, ANCOVA): −2.2
efficacy compared to placebo, primary and key secondary efficacy parameters ([1]; bifeprunox 20 mg and 30 mg, Endpoint): did not demonstrate efficacy as compared to the placebo group
AKATHISIA, % ([2]; BX 20 mg): 3%
CONVULSION, % ([2]; BX 20 mg): 1%
DIZZINESS, % ([2]; BX 20 mg): 8%
DYSKINESIA, % ([2]; BX 20 mg): 1%
EXTRAPYRAMIDAL DISORDER, % ([2]; BX 20 mg): 3%
HEADACHE, % ([2]; BX 20 mg): 19%
LOSS OF CONSCIOUSNESS, % ([2]; BX 20 mg): 1 (<1%)
MYALGIA, % ([2]; BX 20 mg): 1 (<1%)
NECK PAIN, % ([2]; BX 20 mg): 1%
NERVOUS SYSTEM DISORDERS, % ([2]; BX 20 mg): 38%
PAIN IN EXTREMITY, % ([2]; BX 20 mg): 1 (<1%)
SEDATION, % ([2]; BX 20 mg): 5%
SINUS HEADACHE, % ([2]; BX 20 mg): 1 (<1%)
SOMNOLENCE, % ([2]; BX 20 mg): 3%
TARDIVE DYSKINESIA, % ([2]; BX 20 mg): 1 (<1%)
TREMOR, % ([2]; BX 20 mg): 1%
AKATHISIA, % ([2]; BX 40 mg): 3%
CYST, % ([2]; BX 40 mg): 1 (<1%)
DIZZINESS, % ([2]; BX 40 mg): 10%
DYSKINESIA, % ([2]; BX 40 mg): 1%
EXTRAPYRAMIDAL DISORDER, % ([2]; BX 40 mg): 1 (<1%)
HEADACHE, % ([2]; BX 40 mg): 19%
MUSCULOSKELETAL STIFFNESS, % ([2]; BX 40 mg): 1 (<1%)
MYALGIA, % ([2]; BX 40 mg): 1%
NEOPLASMS BENIGN, MALIGNANT AND UNSPECIFIED (INCL CYSTS AND POLYPS), % ([2]; BX 40 mg): 1 (<1%)
NERVOUS SYSTEM DISORDERS, % ([2]; BX 40 mg): 37%
NEUROLOGICAL SYMPTOM, % ([2]; BX 40 mg): 1 (<1%)
PAIN IN JAW, % ([2]; BX 40 mg): 1 (<1%)
PARAESTHESIA, % ([2]; BX 40 mg): < 1%
SEDATION, % ([2]; BX 40 mg): 7%
SOMNOLENCE, % ([2]; BX 40 mg): 3%
SYNCOPE VASOVAGAL, % ([2]; BX 40 mg): 1%
TREMOR, % ([2]; BX 40 mg): 3%
incidence of dizziness (TEAE of special interest) ([2]; Bifeprunox 30 mg): 10%
orthostatic hypotension (special interest TEAE) ([2]; Bifeprunox 30 mg): three subjects
subjects with at least one AE that led to study termination ([2]; Bifeprunox 30 mg): 7%
subjects with at least one SAE ([2]; Bifeprunox 30 mg): 8%
subjects with at least one TEAE ([2]; Bifeprunox 30 mg): 77%
subjects with at least one special interest TEAE ([2]; Bifeprunox 30 mg): 13%
syncope vasovagal (special interest TEAE) ([2]; Bifeprunox 30 mg): two subjects
incidence of dizziness (TEAE of special interest) ([2]; bifeprunox 20 mg): 8%
subjects with at least one AE that led to study termination ([2]; bifeprunox 20 mg): 8%
subjects with at least one SAE ([2]; bifeprunox 20 mg): 10%
subjects with at least one TEAE ([2]; bifeprunox 20 mg): 82%
subjects with at least one special interest TEAE ([2]; bifeprunox 20 mg): 11%
safety and tolerability [2]: well tolerated at both dose levels
safety and tolerability ([2]; listed as bifeprunox): safe and well tolerated
subjects who discontinued study medication due to an AE ([2]; bifeprunox groups (20, 30 mg), each): 8%
prolactin [3]: a decrease in prolactin
